# System: 233499-124-R-J3-PDC spheroids with HUVEC/MSC, viability
# Assay: Anticancer human tumor 233499-124-R-J3-PDC patient-derived colon adenocarcinoma cell line growth inhibition [PI3K]
# Conditions: for IC50: curve of first compound; for viability, T/C: stronger effect = lower value
# Outline: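 Tumor cells grown as multi-cell spheroids with HUVEC endothelial cells and MSC fibroblast-like stroma were treated with targeted agents combined with inavolisib, alpelisib, duvelisib or copanlisib. Doses fell in half-log steps from near clinical Cmax, else from 10 microM. Viability was measured.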
# [1] = second compound 0.00316 µM, first compound 0.0316 µM
# [2] = second compound 0.00316 µM, first compound 0.1 µM
# [3] = second compound 0.00316 µM, first compound 0.316 µM
# [4] = second compound 0.00316 µM, first compound 1 µM
# [5] = second compound 0.00316 µM, first compound 3.16 µM
# [6] = second compound 0.00316 µM, first compound 10 µM
# [7] = second compound 0.01 µM, first compound 0.0316 µM
# [8] = second compound 0.01 µM, first compound 0.1 µM
# [9] = second compound 0.01 µM, first compound 0.316 µM
# [10] = second compound 0.01 µM, first compound 1 µM
# [11] = second compound 0.01 µM, first compound 3.16 µM
# [12] = second compound 0.01 µM, first compound 10 µM
# [13] = second compound 0.0316 µM, first compound 0.0316 µM
# [14] = second compound 0.0316 µM, first compound 0.1 µM
# [15] = second compound 0.0316 µM, first compound 0.316 µM
# [16] = second compound 0.0316 µM, first compound 1 µM
# [17] = second compound 0.0316 µM, first compound 3.16 µM
# [18] = second compound 0.0316 µM, first compound 10 µM
# [19] = second compound 0.1 µM, first compound 0.0316 µM
# [20] = second compound 0.1 µM, first compound 0.1 µM
# [21] = second compound 0.1 µM, first compound 0.316 µM
# [22] = second compound 0.1 µM, first compound 1 µM
# [23] = second compound 0.1 µM, first compound 3.16 µM
# [24] = second compound 0.1 µM, first compound 10 µM
# [25] = second compound 0.316 µM, first compound 0.0316 µM
# [26] = second compound 0.316 µM, first compound 0.1 µM
# [27] = second compound 0.316 µM, first compound 0.316 µM
# [28] = second compound 0.316 µM, first compound 1 µM
# [29] = second compound 0.316 µM, first compound 3.16 µM
# [30] = second compound 0.316 µM, first compound 10 µM
# [31] = second compound 1 µM, first compound 0.0316 µM
# [32] = second compound 1 µM, first compound 0.1 µM
# [33] = second compound 1 µM, first compound 0.316 µM
# [34] = second compound 1 µM, first compound 1 µM
# [35] = second compound 1 µM, first compound 3.16 µM
# [36] = second compound 1 µM, first compound 10 µM
# 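Further: spheroids exposed to agents for seven days before readout.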
# 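Wherever viability, T/C is given: percent viability relative to DMSO vehicle control taken as 100%.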
smiles,measurement,setting,value
CC(C)NCC(C(=O)N1CCN(c2ncnc3c2C(C)CC3O)CC1)c1ccc(Cl)cc1 (centres undefined) + CC(Nc1ccc2c(c1)OCCn1cc(N3C(=O)OCC3C(F)F)nc1-2)C(N)=O,IC50,second compound 0.00316 µM,> 10 µM
same,IC50,second compound 0.01 µM,> 10 µM
same,IC50,second compound 0.0316 µM,> 10 µM
same,IC50,second compound 0.1 µM,> 10 µM
same,IC50,second compound 0.316 µM,> 10 µM
same,IC50,second compound 1 µM,7.25 µM
same,"viability, T/C",[1],53.2%
same,"viability, T/C",[2],98.8%
same,"viability, T/C",[3],74.7%
same,"viability, T/C",[4],96%
same,"viability, T/C",[5],94.2%
same,"viability, T/C",[6],50.3%
same,"viability, T/C",[7],96.7%
same,"viability, T/C",[8],102%
same,"viability, T/C",[9],94.8%
same,"viability, T/C",[10],96.2%
same,"viability, T/C",[11],86.1%
same,"viability, T/C",[12],71.1%
same,"viability, T/C",[13],89%
same,"viability, T/C",[14],84.9%
same,"viability, T/C",[15],89%
same,"viability, T/C",[16],86.1%
same,"viability, T/C",[17],81.2%
same,"viability, T/C",[18],76.8%
same,"viability, T/C",[19],87.7%
same,"viability, T/C",[20],86.2%
same,"viability, T/C",[21],77.3%
same,"viability, T/C",[22],51.9%
same,"viability, T/C",[23],80.8%
same,"viability, T/C",[24],58.6%
same,"viability, T/C",[25],72.2%
same,"viability, T/C",[26],83.2%
same,"viability, T/C",[27],69.7%
same,"viability, T/C",[28],67.5%
same,"viability, T/C",[29],59.9%
same,"viability, T/C",[30],79.5%
same,"viability, T/C",[31],49.2%
same,"viability, T/C",[32],40.3%
same,"viability, T/C",[33],65.2%
same,"viability, T/C",[34],68.7%
same,"viability, T/C",[35],50.9%
same,"viability, T/C",[36],36.4%
C=CC(=O)N1CCN(c2nc(=O)n(-c3c(C)ccnc3C(C)C)c3nc(-c4c(O)cccc4F)c(F)cc23)C(C)C1 (centres undefined) + COc1c(OCCCN2CCOCC2)ccc2c3n(c(=NC(=O)c4cnc(N)nc4)nc12)CCN3,IC50,second compound 0.00316 µM,> 10 µM
same,IC50,second compound 0.01 µM,> 10 µM
same,IC50,second compound 0.0316 µM,> 10 µM
same,IC50,second compound 0.1 µM,> 10 µM
same,IC50,second compound 0.316 µM,< 0.0316 µM
same,IC50,second compound 1 µM,< 0.0316 µM
same,"viability, T/C",[1],98.1%
same,"viability, T/C",[2],103%
same,"viability, T/C",[3],87.8%
same,"viability, T/C",[4],97.7%
same,"viability, T/C",[5],88.4%
same,"viability, T/C",[6],119%
same,"viability, T/C",[7],109%
same,"viability, T/C",[8],101%
same,"viability, T/C",[9],85.5%
same,"viability, T/C",[10],86.5%
same,"viability, T/C",[11],84.6%
same,"viability, T/C",[12],113%
same,"viability, T/C",[13],94.1%
same,"viability, T/C",[14],98.3%
same,"viability, T/C",[15],85.3%
same,"viability, T/C",[16],95.6%
same,"viability, T/C",[17],103%
same,"viability, T/C",[18],92.5%
same,"viability, T/C",[19],101%
same,"viability, T/C",[20],73.4%
same,"viability, T/C",[21],88%
same,"viability, T/C",[22],58.9%
same,"viability, T/C",[23],67.6%
same,"viability, T/C",[24],82%
same,"viability, T/C",[25],46.3%
same,"viability, T/C",[26],39.4%
same,"viability, T/C",[27],33.1%
same,"viability, T/C",[28],36.4%
same,"viability, T/C",[29],43.7%
same,"viability, T/C",[30],36%
same,"viability, T/C",[31],10%
same,"viability, T/C",[32],7.27%
same,"viability, T/C",[33],12.6%
same,"viability, T/C",[34],6.71%
same,"viability, T/C",[35],15.8%
same,"viability, T/C",[36],7.62%

# Source: PubChem BioAssay AID1963984 (Molecular Pharmacology Branch, DTP, NCI, 2024)
